Key:
[1] = test system: EDL muscle of burned WT rats; assay: Pre-treatment of WT rats before burn injury, EDL muscle protein breakdown (Example 6); assay type: in vivo, rat; details: adult WT rats pre-treated daily for 7 days before 30% TBSA burn, 24 h after burn, vs. saline control WT rats
Protocol: Adult WT rats are pre-treated with either PDE4B-selective inhibitor (4-{[2-(5-Chloro-2-thienyl)-5-ethyl-6-methyl-4-pyrimidinyl]amino}phenyl)acetic acid (test group) or saline (control group). Rats are treated daily for 7 days prior to burn exposure. On day 8, rats are anaesthetized, shaved, and subjected to a third-degree burn on the back, affecting 30% of total body surface area (TBSA). Both test WT rats and control WT rats are then resuscitated. All rats are provided with rat chow equivalent to ˜10% of their body weight.
After 24 h, all rats are re-anesthetized and the gastrocnemius muscles are dissected and rapidly frozen in liquid nitrogen. To assess protein breakdown rates, the dissected extensor digitorum longus (EDL) muscles are tied by the tendons at resting length to stainless steel supports and preincubated in a shaking water bath for 30 min at 37° C. in individually stoppered 25 ml flasks containing oxygenated (95% 02-5% CO2) Krebs-Henseleit bicarbonate buffer (pH 7.4) with 10 mM glucose. Muscles are then transferred to fresh buffer containing 0.5 mM cycloheximide for 2 h incubation. The total (tyrosine) and myofibrillar (1-methyl-histidine, 1-Me-His) protein breakdown rates are determined by measuring the net production of tyrosine and 1-Me-His during 2 h incubation.

[2] = test system: EDL muscle of burn-PDE4B KO rats; assay: EDL muscle protein breakdown during 2 h in vitro incubation with EPAC/PKA inhibitors; assay type: cell-based, rat; details: EDL muscle of burn-PDE4B KO rats obtained 24 h after burn, 2 h in vitro incubation with inhibitor
Protocol: After 24 h, rats were re-anesthetized with pentobarbital (50 mg/kg), and the gastrocnemius muscles were dissected and rapidly frozen in liquid nitrogen. To assess protein breakdown rates, the dissected extensor digitorum longus (EDL) muscles were tied by the tendons at resting length to stainless steel supports and preincubated in a shaking water bath for 30 min at 37° C. in individually stoppered 25 ml flasks containing 3 ml oxygenated (95% 02-5% CO2) Krebs-Henseleit bicarbonate buffer (pH 7.4) with 10 mM glucose. Muscles were then transferred to fresh buffer containing 0.5 mM cycloheximide for 2 h incubation. The total (tyrosine) and myofibrillar (1-methyl-histidine, 1-Me-His) protein breakdown rates were determined by measuring the net production of tyrosine and 1-Me-His during 2 h incubation, according to previously published HPLC procedures (Balasubramaniam, A., et al., Torbafylline (HWA 448) inhibits skeletal muscle proteolysis in burned rats, J. Burn Care & Res. 30: S151 (2009)). The protein breakdown studies with PDE4B KO-rats were repeated with eight each of sham and burn rats to corroborate our initial findings. Additional in vivo experiments were performed to obtain tissues for biochemical studies and to study the effects of inhibitors of PKA (H89) and EPAC (ESI-09) on EDL protein breakdown in PDE4B KO-rats.
To elucidate the factor(s) imparting resistance to burn-induced skeletal muscle proteolysis in PDE4B-KO rats, EDL muscles of burn-PDE4B KO rats were incubated in the presence of inhibitors for cAMP downstream elements, PKA (H89) and EPAC (ESI-09).

[3] = test system: burn-induced skeletal muscle proteolysis; details: rat, burn injury; cited from earlier work
[4] = test system: mouse myotubes, C2C12; details: C2C12 myotubes treated with TNFα+IFNγ; cited from earlier work
[5] = test system: PDE4D in lung tissue; details: murine model of asthma; cited from earlier work

## CCc1c(C)nc(-c2ccc(Cl)s2)nc1Nc1ccc(CC(=O)O)cc1 [Compound 33, (4-{[2-(5-Chloro-2-thienyl)-5-ethyl-6-methyl-4-pyrimidinyl]amino}phenyl) acetic acid]
[1]
  1-Me-His release from the EDL muscle (myofibrillar protein breakdown): significantly decreases
  Tyr release from the EDL muscle (total protein breakdown): significantly decreases

## O=S(=O)(NCCNC/C=C/c1ccc(Br)cc1)c1cccc2cnccc12 [Compound H89]
[2]
  burn-induced EDL muscle myofibrillar protein breakdown (1-Me-His): did not exhibit any effect
  burn-induced EDL muscle total protein breakdown (Tyr): did not exhibit any effect

## CC(C)(C)c1cc(C(=O)/C(C#N)=N/Nc2cccc(Cl)c2)no1 [ESI-09]
[2]
  burn-induced EDL muscle myofibrillar protein breakdown (1-Me-His): to the same extent as in the EDL muscle of burn-WT rats
  burn-induced EDL muscle total protein breakdown (Tyr): to the same extent as in the EDL muscle of burn-WT rats

## CCOCn1cnc2c1c(=O)n(CCCCC(C)(C)O)c(=O)n2C [torbafylline]
[3]
  EPAC/PI3K/Akt pathway: activating
  burn-induced skeletal muscle proteolysis: significantly attenuated
  skeletal muscle PDE4 activity: normalizing
  skeletal muscle cAMP concentrations: normalizing
[4]
  PDE4B expression: normalized
  proteolysis (protein breakdown): normalized

## ciclamilast
[5]
  PDE4D activity in lung tissue: normalized
  PDE4D mRNA expression in lung tissue: normalized

— patent US20190160064A1, “METHODS FOR TREATING SKELETAL MUSCLE CACHEXIA ARISING FROM BURN INJURY BY ADMINISTERING PDE4B-SELECTIVE INHIBITORS” (University of Cincinnati, priority 2017, published 2019)
